Where two headings read alike, the source gives them in different places. Blank lines part the entries; values can stand above or below the molecule they belong to.
What was measured:
[1] = test system: patients with SAH secured by endovascular coiling; conditions: cited from earlier work; for patients with primary end point: placebo 27%; for patients with poor outcome (extended Glasgow Outcome Scale score <1=4): placebo 24%
[2] = test system: patients with SAH secured by surgical clipping; conditions: cited from earlier work
[3] = test system: patients with aneurysmal SAH; conditions: in vivo; cited from earlier work
[4] = test system: double hemorrhage dog model of SAH; assay: Mongrel dog SAH efficacy study: angiographic vasospasm (basilar artery diameter); format: in vivo, mongrel dogs
Procedure: Dose translation from animal to human studies revisited. […] Dogs were euthanized on day 28 or 49. Dogs were anesthetized as described above, blood was collected and blood pressure, temperature, heart rate and oxygen saturation were monitored continuously while animals were under anesthesia. Blood gases were obtained before and after the injections. Cerebral angiography was performed through a 4F catheter inserted into the femoral artery and advanced under fluoroscopic guidance into the proximal portion of one vertebral artery using a guide wire. […] Images were captured digitally using identical exposure factors and magnification and an internal magnification standard was included in every angiogram. […] One half of the blood was injected, followed by injection of microparticles and then the remaining blood. The needle was withdrawn and the dogs were kept 30° head down for 15 minutes after which the femoral catheter was removed, the artery was ligated, and the incision was closed. For […] injection, the blood was injected into the cisterna magna and then the dog was placed prone in a stereotactic unit. […] Blood was injected into the cisterna magna using the same procedure as on day 1 except that microparticles were not injected. Angiography was repeated on days 8 and 15. The diameter of the basilar artery was measured at 5 equally spaced points by two blinded observers and the means averaged. Angiographic vasospasm was assessed by comparing the diameters of basilar arteries from Days 1, 8 and 15 and the time course and severity of angiographic vasospasm was determined. Dogs were weighed weekly and examined daily for 14 days, including behavior examination [Zhou C, Yamaguchi […], Zhang J H. Role of p53 and apoptosis in cerebral vasospasm after experimental subarachnoid hemorrhage. J Cereb Blood Flow Metab 2005; 25:572-82.]. […] Indirect blood pressure was measured in awake dogs daily for the first 14 days and weekly thereafter.

[5] = Mongrel dog SAH study: plasma and CSF nimodipine concentration; format: in vivo, mongrel dogs; conditions: oral 5.2 mg/kg daily, day 3 (highest), n=7
[6] = Nimodipine release in vivo: plasma concentration after subcutaneous injection; design: species or system Wistar rats; conditions: 20 mg/kg or 200 mg/kg
Procedure: A mobile phase of water:methyl alcohol:tetrahydrofuran was used (60:20:20) at 2 mL/min with detection at 235 nm.
Blood samples were collected from two alternating cohorts of 2 or 3 animals/cohort in the microparticle formulation-injected groups. Collection was immediately before injection and then 1, 12, and 24 hours post dose, and on days 4, 8, 11, and 15. After the last blood sample collection interval, the surviving animals were euthanized via carbon dioxide inhalation. Animals were euthanized by cervical dislocation and the carcasses were discarded.

[7] = test system: double hemorrhage dog model of SAH; assay: Mongrel dog SAH study: behavior, blood pressure, microthrombi, neuronal injury; format: in vivo, mongrel dogs; conditions: placebo microparticle plus oral nimodipine
Procedure: Blood was injected into the cisterna magna using the same procedure as on day 1 except that microparticles were not injected. Angiography was repeated on days 8 and 15. The diameter of the basilar artery was measured at 5 equally spaced points by two blinded observers and the means averaged. Angiographic vasospasm was assessed by comparing the diameters of basilar arteries from Days 1, 8 and 15 and the time course and severity of angiographic vasospasm was determined. Dogs were weighed weekly and examined daily for 14 days, including behavior examination [Zhou C, Yamaguchi […], Zhang J H. Role of p53 and apoptosis in cerebral vasospasm after experimental subarachnoid hemorrhage. J Cereb Blood Flow Metab 2005; 25:572-82.]. […] Indirect blood pressure was measured in awake dogs daily for the first 14 days and weekly thereafter. Dogs were euthanized by an intravenous overdose of sodium pentobarbital. They were perfused through the heart with PBS followed by 10% neutral buffered formalin. […] Neuronal degeneration and apoptosis were scored by a pathologist blinded to the assigned group on a semi-quantitative scale as normal, minimal, mild, moderate or severe. Microthrombi present in three (3) 100×100 μm fields were counted.

[8] = oral, total single day dose of 360 mg; cited from earlier work
[9] = test system: K+ and Na+ currents, and L, P/Q and T-type calcium currents; conditions: cited from earlier work
N-type calcium current = N-type calcium current (Homo sapiens, UniProt Q00975); conditions: at 300 nM to 500 nM; cited from earlier work
R-type calcium current = target: T1, R-type calcium current (Rattus norvegicus, UniProt Q07652); conditions: at 40 nM concentration; cited from earlier work
T1 construct: R-type calcium current in the neurohypophysial nerve endings at 40 nM concentration; host or cells: neurohypophysial nerve endings

[10] = placebo microparticles + oral nimodipine 5.2 mg/kg daily for 21 days, n = 8

T1 sequence (Q07652 whole entry): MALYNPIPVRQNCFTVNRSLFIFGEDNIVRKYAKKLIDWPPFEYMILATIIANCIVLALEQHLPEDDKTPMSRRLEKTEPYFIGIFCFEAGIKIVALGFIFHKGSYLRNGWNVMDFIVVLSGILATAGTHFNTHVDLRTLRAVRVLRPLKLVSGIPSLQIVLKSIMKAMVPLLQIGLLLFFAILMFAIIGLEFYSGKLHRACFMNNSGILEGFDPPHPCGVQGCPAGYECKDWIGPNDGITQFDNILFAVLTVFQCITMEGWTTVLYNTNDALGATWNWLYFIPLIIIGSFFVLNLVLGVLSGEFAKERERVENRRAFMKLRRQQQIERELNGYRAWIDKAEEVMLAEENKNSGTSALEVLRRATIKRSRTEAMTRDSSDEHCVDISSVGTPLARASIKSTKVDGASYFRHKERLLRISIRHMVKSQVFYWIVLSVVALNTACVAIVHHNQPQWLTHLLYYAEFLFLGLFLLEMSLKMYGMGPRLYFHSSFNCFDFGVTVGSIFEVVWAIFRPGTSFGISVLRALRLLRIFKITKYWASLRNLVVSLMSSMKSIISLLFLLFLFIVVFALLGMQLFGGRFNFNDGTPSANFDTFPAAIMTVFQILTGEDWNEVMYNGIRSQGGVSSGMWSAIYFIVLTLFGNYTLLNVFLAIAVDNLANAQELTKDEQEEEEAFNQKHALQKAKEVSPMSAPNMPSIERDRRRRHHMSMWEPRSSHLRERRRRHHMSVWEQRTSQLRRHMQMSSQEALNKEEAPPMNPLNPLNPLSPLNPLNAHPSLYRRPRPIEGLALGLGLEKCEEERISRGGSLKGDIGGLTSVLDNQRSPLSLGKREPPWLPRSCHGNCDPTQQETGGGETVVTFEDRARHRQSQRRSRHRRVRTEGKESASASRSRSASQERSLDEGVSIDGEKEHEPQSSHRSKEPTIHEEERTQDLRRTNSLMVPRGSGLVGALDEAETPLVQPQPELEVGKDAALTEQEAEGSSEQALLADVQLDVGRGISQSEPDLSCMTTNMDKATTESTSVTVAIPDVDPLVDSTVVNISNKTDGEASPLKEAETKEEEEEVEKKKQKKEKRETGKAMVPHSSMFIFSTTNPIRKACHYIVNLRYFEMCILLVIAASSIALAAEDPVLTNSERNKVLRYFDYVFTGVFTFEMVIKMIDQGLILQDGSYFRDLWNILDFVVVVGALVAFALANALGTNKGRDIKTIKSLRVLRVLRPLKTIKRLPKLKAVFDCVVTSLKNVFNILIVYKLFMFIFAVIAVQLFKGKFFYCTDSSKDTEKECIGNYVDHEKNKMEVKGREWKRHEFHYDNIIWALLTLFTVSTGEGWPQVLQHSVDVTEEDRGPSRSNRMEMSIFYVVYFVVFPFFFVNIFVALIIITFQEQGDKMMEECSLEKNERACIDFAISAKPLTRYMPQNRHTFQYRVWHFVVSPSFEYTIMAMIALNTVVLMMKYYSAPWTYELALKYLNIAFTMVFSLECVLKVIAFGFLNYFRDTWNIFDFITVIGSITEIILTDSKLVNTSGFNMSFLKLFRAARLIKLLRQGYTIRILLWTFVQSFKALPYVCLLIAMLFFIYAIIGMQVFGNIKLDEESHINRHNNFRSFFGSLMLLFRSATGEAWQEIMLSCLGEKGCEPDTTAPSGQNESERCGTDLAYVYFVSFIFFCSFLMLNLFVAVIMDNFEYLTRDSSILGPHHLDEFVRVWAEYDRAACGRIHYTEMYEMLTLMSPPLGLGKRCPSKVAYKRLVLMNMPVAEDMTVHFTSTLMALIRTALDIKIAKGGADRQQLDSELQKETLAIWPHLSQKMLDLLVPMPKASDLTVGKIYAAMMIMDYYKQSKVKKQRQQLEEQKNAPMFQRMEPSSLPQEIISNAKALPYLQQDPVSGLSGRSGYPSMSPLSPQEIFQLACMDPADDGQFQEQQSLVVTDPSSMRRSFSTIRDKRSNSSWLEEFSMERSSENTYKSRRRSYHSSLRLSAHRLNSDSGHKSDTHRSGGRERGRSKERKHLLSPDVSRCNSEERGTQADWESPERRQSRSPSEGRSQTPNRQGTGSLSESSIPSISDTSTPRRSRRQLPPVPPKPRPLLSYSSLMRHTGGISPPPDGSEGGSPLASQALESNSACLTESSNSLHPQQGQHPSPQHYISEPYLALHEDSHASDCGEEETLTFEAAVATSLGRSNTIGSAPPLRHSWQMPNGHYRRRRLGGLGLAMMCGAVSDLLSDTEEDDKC
Chain of N-type calcium current (Q00975 whole entry): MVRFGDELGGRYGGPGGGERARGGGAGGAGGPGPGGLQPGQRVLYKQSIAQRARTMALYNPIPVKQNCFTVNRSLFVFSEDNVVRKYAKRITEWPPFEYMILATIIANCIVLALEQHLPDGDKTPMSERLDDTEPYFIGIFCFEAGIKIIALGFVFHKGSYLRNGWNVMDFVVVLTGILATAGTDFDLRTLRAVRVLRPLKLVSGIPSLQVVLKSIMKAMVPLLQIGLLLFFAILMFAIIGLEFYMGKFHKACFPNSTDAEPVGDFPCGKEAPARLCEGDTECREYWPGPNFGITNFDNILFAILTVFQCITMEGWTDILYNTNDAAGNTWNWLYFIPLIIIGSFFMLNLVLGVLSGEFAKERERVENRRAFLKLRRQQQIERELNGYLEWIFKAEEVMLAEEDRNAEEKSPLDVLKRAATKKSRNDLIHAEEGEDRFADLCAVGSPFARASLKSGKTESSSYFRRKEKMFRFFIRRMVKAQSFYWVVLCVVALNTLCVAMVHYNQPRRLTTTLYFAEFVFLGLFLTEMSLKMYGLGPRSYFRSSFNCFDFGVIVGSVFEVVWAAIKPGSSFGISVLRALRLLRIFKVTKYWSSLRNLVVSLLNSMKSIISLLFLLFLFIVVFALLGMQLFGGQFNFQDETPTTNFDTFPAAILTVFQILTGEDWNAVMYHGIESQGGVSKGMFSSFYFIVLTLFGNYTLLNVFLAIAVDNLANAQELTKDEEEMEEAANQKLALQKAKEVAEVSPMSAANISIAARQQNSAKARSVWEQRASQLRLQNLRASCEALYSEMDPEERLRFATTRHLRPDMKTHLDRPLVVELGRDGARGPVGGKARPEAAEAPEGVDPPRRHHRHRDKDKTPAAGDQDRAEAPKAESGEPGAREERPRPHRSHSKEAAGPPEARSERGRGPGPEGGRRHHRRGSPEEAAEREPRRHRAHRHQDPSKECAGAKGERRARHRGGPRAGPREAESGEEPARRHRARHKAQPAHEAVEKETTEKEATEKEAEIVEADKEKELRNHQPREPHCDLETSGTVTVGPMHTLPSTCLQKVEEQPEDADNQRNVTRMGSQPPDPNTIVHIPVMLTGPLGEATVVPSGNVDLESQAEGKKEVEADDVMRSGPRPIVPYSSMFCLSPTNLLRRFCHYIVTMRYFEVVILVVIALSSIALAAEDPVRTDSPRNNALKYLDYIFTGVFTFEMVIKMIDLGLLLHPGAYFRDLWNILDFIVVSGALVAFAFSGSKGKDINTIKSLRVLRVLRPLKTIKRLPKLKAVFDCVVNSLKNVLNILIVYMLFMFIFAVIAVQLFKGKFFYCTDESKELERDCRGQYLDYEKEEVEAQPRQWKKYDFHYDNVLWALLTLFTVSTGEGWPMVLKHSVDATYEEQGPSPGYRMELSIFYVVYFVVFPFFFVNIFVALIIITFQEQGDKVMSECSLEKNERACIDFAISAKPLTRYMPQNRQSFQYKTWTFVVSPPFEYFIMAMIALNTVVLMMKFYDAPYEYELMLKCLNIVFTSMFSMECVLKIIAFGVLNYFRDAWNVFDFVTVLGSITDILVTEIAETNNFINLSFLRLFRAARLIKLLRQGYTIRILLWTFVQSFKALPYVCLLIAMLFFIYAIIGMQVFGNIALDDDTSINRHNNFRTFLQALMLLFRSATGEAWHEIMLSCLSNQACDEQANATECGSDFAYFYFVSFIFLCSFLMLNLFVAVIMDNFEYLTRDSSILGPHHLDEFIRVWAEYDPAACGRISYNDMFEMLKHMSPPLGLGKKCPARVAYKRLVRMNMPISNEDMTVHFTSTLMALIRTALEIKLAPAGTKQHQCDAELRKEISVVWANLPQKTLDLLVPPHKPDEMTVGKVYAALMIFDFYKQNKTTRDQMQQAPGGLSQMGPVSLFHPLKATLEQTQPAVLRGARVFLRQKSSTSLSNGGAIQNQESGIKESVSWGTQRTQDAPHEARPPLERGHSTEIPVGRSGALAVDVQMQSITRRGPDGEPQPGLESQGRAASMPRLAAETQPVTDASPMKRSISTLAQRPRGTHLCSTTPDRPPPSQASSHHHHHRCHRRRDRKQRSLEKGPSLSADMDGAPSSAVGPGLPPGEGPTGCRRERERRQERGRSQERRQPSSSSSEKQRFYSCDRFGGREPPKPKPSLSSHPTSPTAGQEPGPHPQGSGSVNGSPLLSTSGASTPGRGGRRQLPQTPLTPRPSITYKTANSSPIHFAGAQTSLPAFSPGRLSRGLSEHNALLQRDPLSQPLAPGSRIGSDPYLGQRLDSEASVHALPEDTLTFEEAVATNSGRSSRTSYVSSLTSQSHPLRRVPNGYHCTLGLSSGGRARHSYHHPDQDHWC

Molecule: COc1ccccc1Oc1c(NS(=O)(=O)c2ccc(C)cn2)nc(-c2ccnc(-c3nnn[nH]3)c2)nc1OCCO [clazosentan]
- patients with primary end point ([1]; 5 mg/h, 47/194): 24%
- odds ratio, primary end point ([1]; 5 mg/h, 95% CI 0.479-1.289, P=0.340): 0.786
- odds ratio, poor outcome ([1]; 5 mg/h, 95% CI 0.546-1.544, P=0.748): 0.918
- patients with poor outcome (extended Glasgow Outcome Scale score <1=4) ([1]; 5 mg/h): 25%
- patients with primary end point ([1]; 15 mg/h, 28/188): 15%
- odds ratio, primary end point ([1]; 15 mg/h, 95% CI 0.275-0.818, P=0.007): 0.474
- odds ratio, poor outcome ([1]; 15 mg/h, 95% CI 0.802-2.227, P=0.266): 1.337
- post aneurysmal SAH vasospasm-related morbidity/all-cause mortality ([1]; 15 mg/h): significantly reduced
- patients with poor outcome (extended Glasgow Outcome Scale score <1=4) ([1]; 15 mg/h): 28%
- adverse events versus placebo ([1]; 5 or 15 mg/h): Pulmonary complications, anemia, and hypotension were more common
- outcome (extended Glasgow Outcome Scale) ([1]; 5 or 15 mg/h): neither dose improved outcome
- patients meeting primary composite endpoint (week 6): all-cause mortality, vasospasm-related new cerebral infarcts, delayed ischemic neurological deficit, rescue therapy ([2]; 5 mg/h up to 14 days, 161 of 764, placebo 25%): 21%
- relative risk reduction, primary endpoint ([2]; 5 mg/h, 95% CI −4 to 33, p=0.10): 17%
- patients with poor functional outcome (GOSE score <1=4) ([2]; 5 mg/h, 224 patients, placebo 25%): 29%
- Mortality (week 12) ([2]; 5 mg/h, both groups): 6%
- adverse events versus placebo ([2]; 5 mg/h): Lung complications, anaemia, and hypotension were more common
- effect on mortality and vasospasm-related morbidity or functional outcome ([2]; 5 mg/h): no significant effect
- relative risk reduction, poor functional outcome ([2]; 5 mg/h, −45 to 4, p=0.10): −18%
- incidence of angiographic vasospasm after aneurysmal SAH [3]: significantly reduced the incidence of angiographic vasospasm

- concentration of nimodipine in CSF [5]: 1.56 ± 1.17 ng/mL
Molecule: COCCOC(=O)C1=C(C)NC(C)=C(C(=O)OC(C)C)C1c1cccc([N+](=O)[O-])c1 (centres unmarked) [nimodipine, Isopropyl 2-methoxyethyl 1,4-dihydro-2,6-dimethyl-4-(m-nitrophenyl)-3,5-pyridinedicarboxylate]
- % change compared to day 1, Day 8 [4, 10]: (−27.9 ± 3.0) %
- % change compared to day 1, Day 15 [4, 10]: (−11.7 ± 4.5) %
- Angiographic diameter of basilar artery (mm), Day 8 [4, 10]: 1.08 ± 0.12 mm
- Angiographic diameter of basilar artery (mm), Day 15 [4, 10]: 1.32 ± 0.17 mm
- Angiographic diameter of basilar artery (mm), Day 1 ([4]; placebo microparticles + oral nimodipine 5.2 mg/kg daily for 21 days, n = 8, baseline): 1.51 ± 0.13 mm
- basilar artery diameter 8 and 15 days after SAH versus day 1 ([4]; placebo microparticles with oral nimodipine, ANOVA P=0.001): significant reductions in basilar artery diameter
- release of nimodipine over time in vivo (plasma) [6]: Sustained release of nimodipine over time was observed
- dogs with microthrombi [7]: one
- bioavailability [8]: about 28%

Molecule: SNX-482
- effect on other currents [9]: no effect is observed
- block of N-type calcium current (N-type calcium current): 30-50%
- block of R-type calcium current (R-type calcium current): blocks

From patent US20190054022A1, “FORMULATIONS OF SITE-SPECIFIC, MICROPARTICULATE COMPOSITIONS AND THEIR USE TO IMPROVE OUTCOME AFTER ANEURSYMAL SUBARACHNOID HEMORRHAGE” (Edge Therapeutics, Inc., priority 2016, published 2019)
